In BindingDB's records for patent WO2025045746 (695 Avenue de la Résistance, 2025):

The compounds below were run against T1, NAD(+) hydrolase SARM1 [28-724] (UniProt Q6SZW1) (assay: SARM1 Inhibitory Activity).
T1 construct: 28-724
T1 sequence (Q6SZW1 whole entry): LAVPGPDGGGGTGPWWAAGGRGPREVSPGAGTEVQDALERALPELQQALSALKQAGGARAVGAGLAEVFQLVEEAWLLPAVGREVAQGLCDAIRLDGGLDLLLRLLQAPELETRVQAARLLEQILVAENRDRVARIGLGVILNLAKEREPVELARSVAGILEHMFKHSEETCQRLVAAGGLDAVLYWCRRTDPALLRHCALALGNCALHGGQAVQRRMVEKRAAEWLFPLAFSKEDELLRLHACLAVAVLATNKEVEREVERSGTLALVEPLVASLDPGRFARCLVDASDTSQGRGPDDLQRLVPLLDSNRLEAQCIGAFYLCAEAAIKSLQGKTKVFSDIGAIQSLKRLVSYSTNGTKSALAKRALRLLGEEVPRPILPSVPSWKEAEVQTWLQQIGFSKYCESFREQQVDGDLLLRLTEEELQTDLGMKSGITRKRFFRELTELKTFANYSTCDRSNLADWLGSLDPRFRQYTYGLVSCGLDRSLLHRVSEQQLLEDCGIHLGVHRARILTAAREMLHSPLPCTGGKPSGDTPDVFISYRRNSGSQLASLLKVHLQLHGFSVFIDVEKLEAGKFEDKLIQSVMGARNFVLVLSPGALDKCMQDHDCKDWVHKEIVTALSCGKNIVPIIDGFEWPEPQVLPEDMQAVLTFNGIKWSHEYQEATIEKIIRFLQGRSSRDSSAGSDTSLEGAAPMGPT
Description: Assay reagents were prepared in 25mM HEPES pH 7.2, 50mM NaCl, 1mM EDTA and 0.0025% Tween20. […] The peak area of NAD and linear ADPR were measured by a RapidFire High Throughput Mass Spectrometry System (Agilent Technologies, Santa Clara, CA) using an API5000 triple quadrupole mass spectrometer (AB Sciex Framingham, MA). The ratio of linear ADPR to NAD peak area was then plotted against compound concentration to obtain an IC50 as fitted via non-linear regression.

Row | Structure (SMILES) | IC50
1 | O=C(c1cc(-c2ccncc2)n[nH]1)N1CCC(c2ccccc2)C1 (configuration not stated) [WO2025045746, Example 2] | 4510 nM
2 | O=C(c1cc(-c2ccncc2)n[nH]1)N1CCC2(CCc3cc(Br)ccc32)C1 (configuration not stated) [WO2025045746, Example 3] | 3190 nM
3 | O=C(c1cc(-c2ccncc2)n[nH]1)N1CCC(c2ccccc2Cl)C1 (configuration not stated) [WO2025045746, Example 6] | 3040 nM
4 | CC1(C)CC(c2ccccc2)CN1C(=O)c1cc(-c2ccncc2)n[nH]1 (configuration not stated) [WO2025045746, Example 11] | 7390 nM
5 | Cc1ccc(C2CCN(C(=O)c3cc(-c4ccnnc4)n[nH]3)C2)cc1 (configuration not stated) [WO2025045746, Example 14] | 2910 nM
6 | O=C(c1cc(-c2ccnnc2)n[nH]1)N1CCC(F)(c2cc(F)cc(F)c2)C1 (configuration not stated) [WO2025045746, Example 15] | 3740 nM
7 | N#Cc1ccc(C2CCN(C(=O)c3cc(-c4ccnnc4)n[nH]3)C2)cc1 (configuration not stated) [WO2025045746, Example 16] | 2170 nM
8 | O=C(c1cc(-c2ccnnc2)n[nH]1)N1CCC(c2cccc(OC(F)(F)F)c2)C1 (configuration not stated) [WO2025045746, Example 18] | 6180 nM
9 | O=C(c1cc(-c2ccnnc2)n[nH]1)N1CCC(c2ccc(Cl)cn2)C1 (configuration not stated) [WO2025045746, Example 20] | 9660 nM
10 | O=C(c1cc(-c2ccnnc2)n[nH]1)N1C[C@H](O)[C@H](c2ccc(Cl)cc2)C1 [WO2025045746, Example 22] | 9220 nM
11 | O=C(c1cc(-c2ccnnc2)n[nH]1)N1CCC(F)(c2ccc(F)c(F)c2)C1 (configuration not stated) [WO2025045746, Example 23] | 2270 nM
12 | CC1CC(c2ccccc2)C(C)N1C(=O)c1cc(-c2ccnnc2)n[nH]1 (configuration not stated) [WO2025045746, Example 24] | 9480 nM
13 | C[C@@H]1C[C@H](c2ccc(F)cc2)CN1C(=O)c1cc(-c2ccnnc2)n[nH]1 [WO2025045746, Example 25] | 9540 nM
14 | O=C(c1cc(-c2ccncc2)n[nH]1)N1CC[C@@H](c2ccc(Cl)nc2)C1 [WO2025045746, Example 29] | 2830 nM
15 | COc1cc(C2CCN(C(=O)c3cc(-c4ccnnc4)n[nH]3)C2)cc(F)c1F (configuration not stated) [WO2025045746, Example 33] | 2120 nM
16 | O=C(c1cc(-c2ccnnc2)n[nH]1)N1C[C@H](O)[C@H](c2ccc(Cl)cc2)C1 [WO2025045746, Example 34] | 5920 nM
17 | O=C(c1cc(-c2ccnnc2)n[nH]1)N1CCC(c2cnc(Cl)s2)C1 (configuration not stated) [WO2025045746, Example 37] | 1780 nM
18 | O=C(c1cc(-c2ccnnc2)n[nH]1)N1CCC(c2ncc(Cl)s2)C1 (configuration not stated) [WO2025045746, Example 38] | 8300 nM
19 | CC1CC(c2ccc(Cl)cc2)CN1C(=O)c1cc(-c2ccnnc2)n[nH]1 (configuration not stated) [WO2025045746, Example 43] | 8690 nM
20 | Cc1ccc(C2CCN(C(=O)c3cc(-c4ccnnc4)n[nH]3)C2)s1 (configuration not stated) [WO2025045746, Example 45] | 1540 nM
21 | Cc1csc(C2CCN(C(=O)c3cc(-c4ccnnc4)n[nH]3)C2)c1 (configuration not stated) [WO2025045746, Example 48] | 7410 nM
22 | C[C@@H]1CN(C(=O)c2cc(-c3ccnnc3)n[nH]2)C[C@H]1c1ccc(Br)cc1 [WO2025045746, Example 52] | 1360 nM
23 | O=C(c1cc(-c2ccnnc2)n[nH]1)N1CCC(c2cc3ccccc3s2)C1 (configuration not stated) [WO2025045746, Example 54] | 8130 nM
24 | Cc1sc(C2CCN(C(=O)c3cc(-c4ccnnc4)n[nH]3)C2)cc1Br (configuration not stated) [WO2025045746, Example 55] | 2170 nM
25 | Cc1cnccc1-c1cc(C(=O)N2CC[C@H](c3ccc(Cl)cc3)C2)[nH]n1 [WO2025045746, Example 57] | 2210 nM
26 | O=C(c1[nH]nc(-c2ccnnc2)c1Br)N1CC[C@@H](c2ccc(Cl)cc2)C1 [WO2025045746, Example 59] | 1780 nM

Stronger by IC50, values ahead:

Row | IC50 | Structure (SMILES)
27 | 387 nM | O=C(c1cc(-c2ccncc2)n[nH]1)N1CCC(c2ccc(Cl)cc2)C1 (configuration not stated) [WO2025045746, Example 1]
28 | 191 nM | O=C(c1cc(-c2ccnnc2)n[nH]1)N1CCC(c2ccc(Cl)cc2)C1 (configuration not stated) [WO2025045746, Example 4]
29 | 427 nM | Cc1c(-c2ccnnc2)n[nH]c1C(=O)N1CCC(c2ccc(Cl)cc2)C1 (configuration not stated) [WO2025045746, Example 5]
30 | 1280 nM | O=C(c1cc(-c2ccncc2)n[nH]1)N1CCC(c2cccc(Cl)c2)C1 (configuration not stated) [WO2025045746, Example 7]
31 | 458 nM | O=C(c1cc(-c2ccncc2)n[nH]1)N1CCC(c2ccc(F)cc2Cl)C1 (configuration not stated) [WO2025045746, Example 8]
32 | 194 nM | O=C(c1cc(-c2ccncc2)n[nH]1)N1CCC(c2ccc(Cl)s2)C1 (configuration not stated) [WO2025045746, Example 9]
33 | 98 nM | O=C(c1cc(-c2ccnnc2)n[nH]1)N1CCC(c2ccc(Cl)s2)C1 (configuration not stated) [WO2025045746, Example 10]
34 | 624 nM | O=C(c1cc(-c2ccncc2)n[nH]1)N1C[C@@H](O)[C@H](c2ccc(Cl)cc2)C1 [WO2025045746, Example 13]
35 | 105 nM | O=C(c1cc(-c2ccnnc2)n[nH]1)N1CCC(c2ccc(F)c(F)c2)C1 (configuration not stated) [WO2025045746, Example 17]
36 | 469 nM | O=C(c1cc(-c2ccnnc2)n[nH]1)N1CCC(c2ccc(Cl)nc2)C1 (configuration not stated) [WO2025045746, Example 19]
37 | 351 nM | O=C(c1cc(-c2ccnnc2)n[nH]1)N1C[C@@H](O)[C@H](c2ccc(Cl)cc2)C1 [WO2025045746, Example 21]
38 | 194 nM | O=C(c1cc(-c2ccncc2)n[nH]1)N1CC[C@H](c2ccc(Cl)cc2)C1 [WO2025045746, Example 26]
39 | 625 nM | O=C(c1cc(-c2ccncc2)n[nH]1)N1CC[C@@H](c2ccc(Cl)cc2)C1 [WO2025045746, Example 27]
40 | 682 nM | O=C(c1cc(-c2ccncc2)n[nH]1)N1CC[C@H](c2ccc(Cl)nc2)C1 [WO2025045746, Example 28]
41 | 172 nM | O=C(c1cc(-c2ccnnc2)n[nH]1)N1C[C@@H](O)[C@H](c2ccc(Cl)cc2)C1 [WO2025045746, Example 30]
42 | 761 nM | O=C(c1cc(-c2ccnnc2)n[nH]1)N1C[C@H](c2ccc(Cl)cc2)[C@@H](O)C1 [WO2025045746, Example 31]
43 | 521 nM | O=C(c1cc(-c2ccncc2)n[nH]1)N1CC(c2ccc(Cl)cc2)C2CCCCC21 (configuration not stated) [WO2025045746, Example 32]
44 | 698 nM | COc1c(-c2ccnnc2)n[nH]c1C(=O)N1CCC(c2ccc(Cl)cc2)C1 (configuration not stated) [WO2025045746, Example 35]

Row | IC50 | Structure (SMILES)
45 | 1220 nM | O=C(c1cc(-c2ccncc2F)n[nH]1)N1CCC(c2ccc(Cl)cc2)C1 (configuration not stated) [WO2025045746, Example 36]
46 | 73 nM | O=C(c1cc(-c2ccnnc2)n[nH]1)N1CCC(c2ccc(Cl)c(F)c2)C1 (configuration not stated) [WO2025045746, Example 39]
47 | 746 nM | N#Cc1ccc(C2CCN(C(=O)c3cc(-c4ccnnc4)n[nH]3)C2)s1 (configuration not stated) [WO2025045746, Example 40]
48 | 57 nM | O=C(c1cc(-c2ccnnc2)n[nH]1)N1CC[C@@H](c2ccc(F)c(F)c2)C1 [WO2025045746, Example 41]
49 | 183 nM | O=C(c1cc(-c2ccnnc2)n[nH]1)N1CC[C@H](c2ccc(F)c(F)c2)C1 [WO2025045746, Example 42]
50 | 114 nM | O=C(c1cc(-c2ccnnc2)n[nH]1)N1CCC(c2ccc(Br)s2)C1 (configuration not stated) [WO2025045746, Example 44]
51 | 188 nM | CC1CN(C(=O)c2cc(-c3ccnnc3)n[nH]2)CC1c1ccc(Br)cc1 (configuration not stated) [WO2025045746, Example 46]
52 | 142 nM | O=C(c1[nH]nc(-c2ccnnc2)c1Cl)N1CCC(c2ccc(F)c(F)c2)C1 (configuration not stated) [WO2025045746, Example 47]
53 | 379 nM | O=C(c1[nH]nc(-c2ccnnc2)c1Cl)N1CC[C@@H](c2ccc(F)c(F)c2)C1 [WO2025045746, Example 49]
54 | 68 nM | O=C(c1[nH]nc(-c2ccnnc2)c1Cl)N1CC[C@H](c2ccc(F)c(F)c2)C1 [WO2025045746, Example 50]
55 | 461 nM | O=C(c1cc(-c2ccnnc2)n[nH]1)N1CCC(c2ccc(Br)cc2)C1 (configuration not stated) [WO2025045746, Example 51]
56 | 84 nM | C[C@H]1CN(C(=O)c2cc(-c3ccnnc3)n[nH]2)C[C@@H]1c1ccc(Br)cc1 [WO2025045746, Example 53]
57 | 500 nM | Cc1cnccc1-c1cc(C(=O)N2CC[C@@H](c3ccc(Cl)cc3)C2)[nH]n1 [WO2025045746, Example 56]
58 | 340 nM | O=C(c1[nH]nc(-c2ccnnc2)c1Br)N1CC[C@H](c2ccc(Cl)cc2)C1 [WO2025045746, Example 58]
59 | 72 nM | O=C(c1cc(-c2ccnnc2)n[nH]1)N1C[C@@H](CO)[C@H](c2ccc(Cl)cc2)C1 [WO2025045746, Example 60]
60 | 1240 nM | O=C(c1cc(-c2ccnnc2)n[nH]1)N1C[C@H](CO)[C@@H](c2ccc(Cl)cc2)C1 [WO2025045746, Example 61]
61 | 95 nM | O=C(c1[nH]nc(-c2ccnnc2)c1F)N1CC[C@H](c2ccc(Cl)cc2)C1 [WO2025045746, Example 63]
62 | 492 nM | O=C(c1[nH]nc(-c2ccnnc2)c1F)N1CC[C@@H](c2ccc(Cl)cc2)C1 [WO2025045746, Example 64]
